# What was measured:
# Assay type in all cases: in vivo, Wistar rats
# [1] = test system: LPS; experiment: Plasma LPS levels (intestinal permeability to endotoxins); details: animals pretreated with OEA and receiving ethanol; ethanol alone about 80%; does not differ from control or ethanol group
# Description: The animals were treated with intragastric (i.g.) ethanol 3 times a day using an i.g. cannula (16G needle, Fisher Scientific, Waltham, Mass., USA), following a protocol based on a slightly modified standard 4-day alcohol intoxication pattern (Bernier et al., 2002a, b) (FIG. 1A). The ethanol doses were administered every 8 h for a total time of 4 days. The rats treated with ethanol received an initial loading dose of 5 g/kg of ethanol in a 30% solution (w/v) and then a maximum maintenance dose of 3 g/kg, which were determined based on blood ethanol levels (BEL). This repeated standard alcohol intoxication paradigm kept BEL intoxication relatively constant in a range of sedation/ataxia (190 to 430 mg/dl, Table 3), according to the 6-point alcohol intoxication behavior scale (Majchrowicz, 1975). The mean dose of ethanol/rat/day (days 1-4) was 7.06 g/kg, similar to other studies (Obernier et al., 2002a, b). […]
# Corticosterone and LPS were measured in plasma by means of the use of radioimmunoassay (R.I.A.) kits available on the market (Coat-A-Count®, Siemens, La., USA) or colorimetric enzymatic reaction (HyCult Biotech, Uden, Netherlands), respectively.
# [2] = test system: control animals; experiment: OEA time curve in control animals; details: time curve 3 h, 6 h, 24 h; some trends at 3 h (TLR4, p65)
# Description: A time curve (n=18) was also established with OEA (3 h, 6 h, and 24 h) to rule out any effect in the control animals.
# [3] = test system: HMGB1; experiment: HMGB1 levels (ELISA) and nuclear/cytoplasmic ratio (Western blot) in frontal cortex after ethanol intoxication
# Description: The animals were treated with intragastric (i.g.) ethanol 3 times a day using an i.g. cannula (16G needle, Fisher Scientific, Waltham, Mass., USA), following a protocol based on a slightly modified standard 4-day alcohol intoxication pattern (Bernier et al., 2002a, b) (FIG. 1A). The ethanol doses were administered every 8 h for a total time of 4 days. The rats treated with ethanol received an initial loading dose of 5 g/kg of ethanol in a 30% solution (w/v) and then a maximum maintenance dose of 3 g/kg, which were determined based on blood ethanol levels (BEL). This repeated standard alcohol intoxication paradigm kept BEL intoxication relatively constant in a range of sedation/ataxia (190 to 430 mg/dl, Table 3), according to the 6-point alcohol intoxication behavior scale (Majchrowicz, 1975). […] The autoradiograph was quantified by densitometry (NIH ImageJ® software, National Biosciences, Lincoln, Nebr. USA) and expressed as optical density (OD). […] The levels of soluble HMGB1, TNF-α, IL-1β and MCP-1 were determined by means of a commercially available enzyme-linked immunosorbent assay kit (ELISA) (Elabscience Biotechnology Co., Ltd., China, for HMGB-1; RayBiotech®, GA, USA, for TNF-α, IL-1β, and MCP-1). The nuclear/cytosol HMGB1 fraction was determined by means of Western blot analysis.
compound,measurement,setting,value
"CCCCCCCC/C=C\CCCCCCCC(=O)NCCO [OEA, oleoylethanolamide]","Plasma LPS levels, increase with respect to the control",[1],44%
same,Effect of OEA on the parameters in control animals,[2],did not significantly modify
same,Ethanol intoxication-induced increase in HMGB1 (ELISA),"[3]; 2-4 h after last ethanol, OEA 5 mg/kg i.p. (initial 10 mg/kg) 10 min before each ethanol",prevented
same,"HMGB1 n/c ratio (nuclear/cytoplasmic, Western blot)","[3]; OEA + ethanol, ethanol alone 1.21, control 1.3",1.48

# Reference: US20190365675A1, “COMPOSITIONS FOR THE PREVENTION AND/OR TREATMENT OF ALCOHOL USE DISORDERS” (SERVICIO ANDALUZ DE SALUD, priority 2016, published 2019)
